Patent US20250295790A1, “LECTIN-TARGETING CONJUGATES” (Helmholtz-Zentrum für Infektionsforschung GmbH, priority 2021, published 2025)
Entries after “also recorded” stand apart in the source; their conditions may differ.

How the values were obtained:
[1] = Stability of conjugates in human blood plasma spiked with LB; assay type: in vitro ADME; conditions: 50% human blood plasma spiked with 10% LB, within three hours
Method: (§1) A 1 mM solution of the studied compound was prepared in PBS (150 mM NaCl, 2.6 mM KCl, 1.4 mM KH2PO4, 10 mM Na2HPO4, pH 7.4) with 20% DMSO. 50 μL of this solution was diluted in 950 μL matrix or human plasma (spiked with 10% LB) on ice. After brief vortex, 100 μL were immediately treated with 100 μL ice-cold MeCN (spiked with […] diphenhydramine as internal standard). The rest of the solution was incubated at 37° C. and 500 rpm in an eppendorf thermomixer. At various time points (30, 60, 120, 180 min), 100 L sample were taken and treated as described above. […] The AUC of the parent drug and its cleavage products and the internal standard was quantified using Compass QuantAnalysis quantification software. The relative AUC was calculated by AUC (compound)/AUC(ISTD). Procaine was used as a positive control as it readily degrades in human plasma.

[2] = Prodrug activation assay in human blood plasma spiked with P. aeruginosa PA14 culture supernatant; assay type: in vitro ADME, Pseudomonas aeruginosa PA14; conditions: 50% human blood plasma spiked with 10% P. aeruginosa culture supernatant, within 3 h
Method: In the prodrug activation assay, the bacterial strain Pseudomonas aeruginosa PA14 wt (DSM 19882) was used. The strain was obtained from the German Collection of Microorganisms and Cell Cultures (DSMZ).
P. aeruginosa PA14 was streaked on LB-agar plates (1% agar) from glycerol stocks and incubated at 37° C. overnight. 2-5 colonies were picked and dispersed in 10 mL LB (10 g/L trypton, 10 g/L NaCl, 5 g/L yeast extracts). This dispersion was incubated overnight at 37° C., 180 rpm under high humidity. The culture was centrifuged (4000 ref, room temperature, 10 min) and the supernatant was filtered (0.22 m pore size). […]
as §1

LecA = target: T1, LecA (Pseudomonas aeruginosa, UniProt Q05097); assay: Competitive binding assay based on fluorescence polarization with LecA; conditions: target LecA; read-out: IC50 ± s.d.
T1 construct: made in house
T1 sequence (Q05097 whole entry): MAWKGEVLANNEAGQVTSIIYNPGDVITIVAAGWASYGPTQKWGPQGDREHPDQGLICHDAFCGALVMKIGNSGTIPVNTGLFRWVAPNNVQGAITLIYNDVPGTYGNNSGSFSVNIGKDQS
Method: LecA (according to Joachim et al.): A serial dilution of the test compounds was prepared in TBS/Ca (8.0 g/L NaCl, 2.4 g/L Tris, 0.19 g/L KCl, 0.15 g/L CaCl2·2 H2O), with 30% DMSO as co-solvent. […] The measured intensities were reduced by the values of only LecA in TBS/Ca and fluorescence polarization was calculated. The data was analysed with the MARS Data Analysis Software (BMG Labtech GmbH, Germany) and fitted according to the four-parameter variable slope model. Bottom and top plateaus were fixed according to the control compounds in each assay ((p-nitrophenyl)-p-D-galactoside) and the data was re-analysed with these values fixed. A minimum of three independent measurements on three plates was performed for each inhibitor.
Averages and standard deviations were calculated from at least three independent experiments.

LecB PA14 = LecB PA14 (Pseudomonas aeruginosa, UniProt A0A0H2ZE85); assay type: binding; conditions: target LecB PA14
Chain of LecB PA14 (A0A0H2ZE85 entry or part of it): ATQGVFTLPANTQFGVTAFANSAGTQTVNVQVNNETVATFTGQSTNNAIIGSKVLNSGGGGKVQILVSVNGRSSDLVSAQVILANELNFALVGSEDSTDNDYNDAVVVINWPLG
Method: LecB (LecB PAO1 according to Hauck et al. and LecB PA14 according to Sommer et al.): A serial dilution of the test compounds was prepared in TBS/Ca, with 20% DMSO as cosolvent. A concentrated solution of LecB PAO1 or PA14 was diluted in TBS/Ca together with the fluorescent reporter ligand (N-(fluorescein-5-yl)-N′-(α-l-fucopyranosyl ethylen)-thiocarbamide) to yield concentrations of 300 nM and 20 nM, respectively. 10 μL of this mix was added to 10 μL serial dilutions of the test compounds in a black 384-well microtiter plates (Greiner Bio-One, Germany, cat. no. 781900) in triplicates. After centrifugation (2680 ref, 1 min, room temperature), the reactions were incubated for 4-8 h at room temperature in a humidity chamber. Fluorescence was measured and analysed as for LecA. Bottom and top plateaus were fixed according to the control compound in each assay (1-fucose) and the data was re-analysed with these values fixed. A minimum of three independent measurements on three plates was performed for each inhibitor.

LecB PAO1 = LecB PAO1 (Pseudomonas aeruginosa, UniProt Q9HYN5); assay type: binding; conditions: target LecB PAO1
Chain of LecB PAO1 (Q9HYN5 entry or part of it): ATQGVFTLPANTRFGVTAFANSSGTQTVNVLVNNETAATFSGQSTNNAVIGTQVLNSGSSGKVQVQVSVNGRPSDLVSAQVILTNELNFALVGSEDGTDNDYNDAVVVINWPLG
Method: LecB (LecB PAO1 according to Hauck et al. and LecB PA14 according to Sommer et al.): A serial dilution of the test compounds was prepared in TBS/Ca, with 20% DMSO as cosolvent. […] Fluorescence was measured and analysed as for LecA. Bottom and top plateaus were fixed according to the control compound in each assay (1-fucose) and the data was re-analysed with these values fixed. A minimum of three independent measurements on three plates was performed for each inhibitor.

A549 cells = assay: Cytotoxicity assay (MTT); assay type: cell-based, human; conditions: 24 h
Source text: Then supernatant was transferred to a 96-well-plate. […] The experiment was repeated at least three times. The error bars indicate the standard deviation.

[3] = calculated as Ki from IC50, read-out: Ki ± s.d.

SMILES | release of antibiotic cargo [1] | release of antibiotic cargo [2] | IC50 (LecA) [nM] | IC50 (LecB PA14) [nM] | Ki (LecB PA14; [3]) [nM] | IC50 (LecB PAO1) [nM] | IC50 ± s.d. (LecB PAO1) | Ki (LecB PAO1; [3]) [nM] | IC50 (A549 cells) [nM]
CC(C)C[C@H](NC(=O)CNC(=O)[C@H](C)NC(=O)c1ccc(S[C@@H]2O[C@H](CO)[C@H](O)[C@H](O)[C@H]2O)cc1)C(=O)N[C@@H](C)C(=O)N[C@H]1CCN(c2cc3c(cc2F)c(=O)c(C(=O)O)cn3C2CC2)C1 [Compound 36] | no significant release of their antibiotic cargo | release their antibiotic cargo; also recorded: released a significant amount of their antibiotic cargo; also recorded: efficiently released their antibiotic cargo | ~30000 | – | – | – | – | – | –
CC(C)CC(NC(=O)CNC(=O)C(C)NC(=O)c1ccc(S(=O)(=O)NCC2OC(C)C(O)C(O)C2O)cc1)C(=O)NC(C)C(=O)NC1CCN(c2cc3c(cc2F)c(=O)c(C(=O)O)cn3C2CC2)C1 (centres unmarked) [Compound 37] | no significant release of their antibiotic cargo | release their antibiotic cargo; also recorded: released a significant amount of their antibiotic cargo; also recorded: efficiently released their antibiotic cargo | – | 750 ± 160 | 270 ± 60 | 3590 ± 1920 | one-digit micromolar range | 1430 ± 900 | > 50000
